Assay results: PMC6318274, “Lattice engineering enables definition of molecular features allowing for potent small-molecule inhibition of HIV-1 entry” (Nature Communications, 2019)
Where “and” joins values, the source holds several entries; their conditions need not be identical. Equal values may be shown once. Read-outs that look alike come from different tables or passages of the source.

Columns and labels:
[1] = tested on: HIV-1 Env-pseudoviruses (30-strain panel); assay: Neutralization assay, cross-clade 30-strain panel (Env-pseudoviruses, TZM-bl target cells); format: cell-based
Experimental: Neutralization was measured using single-round-of-infection HIV-1 Env-pseudoviruses and TZM-bl target cells (ARP Cat No. #8129)[44],[45]. Compounds were prepared at 400 μM with 4% DMSO (dimethyl sulfoxide) in PBS (phosphate-buffered saline) and diluted 20 times as the starting concentration for serial dilution in the neutralization assays. […] After incubation at 37 °C for 2 days, infection of target cells was measured by luciferase activity. Neutralization curves were fit by nonlinear regression using a five-parameter hill slope equation[45].

SVA.MLV [2] = assay: Neutralization assay, control virus SVA.MLV; format: cell-based; conditions: clade NA
Experimental: Neutralization was measured using single-round-of-infection HIV-1 Env-pseudoviruses and TZM-bl target cells (ARP Cat No. #8129)[44],[45]. Compounds were prepared at 400 μM with 4% DMSO (dimethyl sulfoxide) in PBS (phosphate-buffered saline) and diluted 20 times as the starting concentration for serial dilution in the neutralization assays. Pseudoviruses of ten strains from HIV-1 clades A, B, and C were incubated with serial dilutions of drug compounds, then added to TZM-bl target cells which have a luciferase reporter gene. After incubation at 37 °C for 2 days, infection of target cells was measured by luciferase activity. Neutralization curves were fit by nonlinear regression using a five-parameter hill slope equation[45].

[3] = target: BG505 DS-SOSIP.664 Env trimer (Human immunodeficiency virus 1, UniProt Q2N0S5, A430C/A498C/I200C/I556P/T330N/T602C, form not given); format: binding, HIV-1; conditions: ITC, 37 °C
HIV-1 strain NL4-3 = conditions: cited from earlier work
SIVmac251.30.SG3 = tested on: SIVmac251.30.SG3; set-up: method as in earlier work; conditions: SIVmac251.30.SG3, clade NA; cited from earlier work
SVA.MLV [4] = tested on: SVA.MLV; set-up: method as in earlier work; conditions: clade NA; cited from earlier work
[5] = Human immunodeficiency virus 1, TZM-bl, 242-14 (Clade AG), read-out: IC50
[6] = Human immunodeficiency virus 1, TZM-bl, 247-23 (Clade D), read-out: IC50
[7] = Human immunodeficiency virus 1, TZM-bl, 0330.v4.c3 (Clade A), read-out: IC50
[8] = Human immunodeficiency virus 1, TZM-bl, 426c (Clade C), read-out: IC50
[9] = Human immunodeficiency virus 1, TZM-bl, 7165.18 (Clade B), read-out: IC50
[10] = Human immunodeficiency virus 1, TZM-bl, B41 (Clade B), read-out: IC50
[11] = Human immunodeficiency virus 1, TZM-bl, BJOX028000.10.3 (Clade AE), read-out: IC50
[12] = Human immunodeficiency virus 1, TZM-bl, BL01.DG (Clade B), read-out: IC50
[13] = Human immunodeficiency virus 1, TZM-bl, C4118.09 (Clade AE), read-out: IC50
[14] = Human immunodeficiency virus 1, TZM-bl, CAP210.E8 (Clade C), read-out: IC50
[15] = Human immunodeficiency virus 1, TZM-bl, CH119.10 (Clade BC), read-out: IC50
[16] = Human immunodeficiency virus 1, TZM-bl, CNE10 (Clade B), read-out: IC50
[17] = Human immunodeficiency virus 1, TZM-bl, CNE20 (Clade BC), read-out: IC50
[18] = Human immunodeficiency virus 1, TZM-bl, CNE56 (Clade AE), read-out: IC50
[19] = Human immunodeficiency virus 1, TZM-bl, DJ263.8 (Clade AG), read-out: IC50
[20] = Human immunodeficiency virus 1, TZM-bl, DU156.12 (Clade C), read-out: IC50
[21] = Human immunodeficiency virus 1, TZM-bl, Geomean, 30-strain panel, read-out: Geometric mean IC50
[22] = Human immunodeficiency virus 1, TZM-bl, KER2008.12 (Clade A), read-out: IC50
[23] = Human immunodeficiency virus 1, TZM-bl, MB201.A1 (Clade A), read-out: IC50
[24] = Human immunodeficiency virus 1, TZM-bl, NKU3006.ec1 (Clade D), read-out: IC50
[25] = Human immunodeficiency virus 1, TZM-bl, P0402.c2.11 (Clade G), read-out: IC50
[26] = Human immunodeficiency virus 1, TZM-bl, PVO.04 (Clade B), read-out: IC50
[27] = Human immunodeficiency virus 1, TZM-bl, R3265.c6 (Clade AE), read-out: IC50
[28] = Human immunodeficiency virus 1, TZM-bl, REJO.67 (Clade B), read-out: IC50
[29] = Human immunodeficiency virus 1, TZM-bl, T253-11 (Clade AG), read-out: IC50
[30] = Human immunodeficiency virus 1, TZM-bl, T280-5 (Clade AG), read-out: IC50
[31] = Human immunodeficiency virus 1, TZM-bl, ZM106.9 (Clade C), read-out: IC50

COc1cnc(-c2csc(C(=O)NCCO)n2)c2[nH]cc(C(=O)C(=O)N3CCC(=C(C#N)c4ccccc4)CC3)c12 [BMS-818251]
IC50 ([1]; Human immunodeficiency virus 1, TZM-bl): < 0.3 nM and < 0.0002 µg/mL
IC50 [1, 5]: < 0.0003 µM
IC50 ([1]; Human immunodeficiency virus 1, TZM-bl, 242-14.SG3 (Clade AG), read-out: IC50): < 0.2 ng/mL
IC50 [1, 6]: < 0.0003 µM
IC50 ([1]; Human immunodeficiency virus 1, TZM-bl, 247-23.SG3 (Clade D), read-out: IC50): < 0.2 ng/mL
IC50 [1, 7]: 0.004 µM
IC50 ([1]; Human immunodeficiency virus 1, TZM-bl, 0330.v4.c3.SG3 (Clade A), read-out: IC50): 2.3 ng/mL
IC50 [1, 8]: 0.0004 µM
IC50 ([1]; Human immunodeficiency virus 1, TZM-bl, 426c.SG3 (Clade C), read-out: IC50): < 0.2 ng/mL
IC50 [1, 9]: 0.013 µM
IC50 ([1]; Human immunodeficiency virus 1, TZM-bl, 7165.18.SG3 (Clade B), read-out: IC50): 7.4 ng/mL
IC50 ([1]; Human immunodeficiency virus 1, TZM-bl, A03349M1.vrc4a.SG3 (Clade D), read-out: IC50): < 0.2 ng/mL
IC50 [1, 10]: < 0.0003 µM
IC50 ([1]; Human immunodeficiency virus 1, TZM-bl, B41.SG3 (Clade B), read-out: IC50): < 0.2 ng/mL
IC50 [1, 11]: 0.733 µM
IC50 ([1]; Human immunodeficiency virus 1, TZM-bl, BJOX028000.10.3.SG3 (Clade AE), read-out: IC50): 418 ng/mL
IC50 [1, 12]: 0.533 µM
IC50 ([1]; Human immunodeficiency virus 1, TZM-bl, BL01.DG.SG3 (Clade B), read-out: IC50): 304 ng/mL
IC50 [1, 13]: 0.089 µM
IC50 ([1]; Human immunodeficiency virus 1, TZM-bl, C4118.09.SG3 (Clade AE), read-out: IC50): 50.7 ng/mL
IC50 [1, 14]: 0.022 µM
IC50 ([1]; Human immunodeficiency virus 1, TZM-bl, CAP210.E8.SG3 (Clade C), read-out: IC50): 12.5 ng/mL
IC50 [1, 15]: < 0.0003 µM
IC50 ([1]; Human immunodeficiency virus 1, TZM-bl, CH119.10.SG3 (Clade BC), read-out: IC50): < 0.2 ng/mL
IC50 [1, 16]: < 0.0003 µM
IC50 ([1]; Human immunodeficiency virus 1, TZM-bl, CNE10.SG3 (Clade B), read-out: IC50): < 0.2 ng/mL
IC50 [1, 17]: 0.006 µM
IC50 ([1]; Human immunodeficiency virus 1, TZM-bl, CNE20.SG3 (Clade BC), read-out: IC50): 3.4 ng/mL
IC50 [1, 18]: 0.471 µM
IC50 ([1]; Human immunodeficiency virus 1, TZM-bl, CNE56.SG3 (Clade AE), read-out: IC50): 268 ng/mL
IC50 [1, 19]: < 0.0003 µM
IC50 ([1]; Human immunodeficiency virus 1, TZM-bl, DJ263.8.SG3 (Clade AG), read-out: IC50): < 0.2 ng/mL
IC50 [1, 20]: < 0.0003 µM
IC50 ([1]; Human immunodeficiency virus 1, TZM-bl, DU156.12.SG3 (Clade C), read-out: IC50): < 0.2 ng/mL
IC50 [1, 21]: ~0.002 µM
IC50 [1, 22]: 0.011 µM
IC50 ([1]; Human immunodeficiency virus 1, TZM-bl, KER2008.12.SG3 (Clade A), read-out: IC50): 6.3 ng/mL
IC50 [1, 23]: 0.014 µM
IC50 ([1]; Human immunodeficiency virus 1, TZM-bl, MB201.A1.SG3 (Clade A), read-out: IC50): 8 ng/mL
IC50 [1, 24]: < 0.0003 µM
IC50 ([1]; Human immunodeficiency virus 1, TZM-bl, NKU3006.ec1.SG3 (Clade D), read-out: IC50): < 0.2 ng/mL
IC50 [1, 25]: < 0.0003 µM
IC50 ([1]; Human immunodeficiency virus 1, TZM-bl, P0402.c2.11.SG3 (Clade G), read-out: IC50): < 0.2 ng/mL
IC50 [1, 26]: < 0.0003 µM
IC50 ([1]; Human immunodeficiency virus 1, TZM-bl, PVO.04.SG3 (Clade B), read-out: IC50): < 0.2 ng/mL
IC50 [1, 27]: 0.032 µM
IC50 ([1]; Human immunodeficiency virus 1, TZM-bl, R3265.c6.SG3 (Clade AE), read-out: IC50): 18.2 ng/mL
IC50 [1, 28]: 0.45 µM
IC50 ([1]; Human immunodeficiency virus 1, TZM-bl, REJO.67.SG3 (Clade B), read-out: IC50): 256 ng/mL
IC50 [1, 29]: < 0.0003 µM
IC50 ([1]; Human immunodeficiency virus 1, TZM-bl, T253-11.SG3 (Clade AG), read-out: IC50): < 0.2 ng/mL
IC50 [1, 30]: < 0.0003 µM
IC50 ([1]; Human immunodeficiency virus 1, TZM-bl, T280-5.SG3 (Clade AG), read-out: IC50): < 0.2 ng/mL
IC50 [1, 31]: 0.0005 µM
IC50 ([1]; Human immunodeficiency virus 1, TZM-bl, ZM106.9.SG3 (Clade C), read-out: IC50): 0.3 ng/mL
IC50 ([1]; Human immunodeficiency virus 1, TZM-bl, geomean, 30-strain panel, read-out: Geometric mean IC50): < 0.2 ng/mL
IC50 ([1]; Human immunodeficiency virus 1, TZM-bl, read-out: Geometric mean IC50): < 0.002 µM
IC50 (SVA.MLV [2]): > 20 µM
-TΔS [3]: +4.5 kcal/mol
ΔG [3]: -43.5 kJ/mol
ΔH [3]: -62.3 kJ/mol
Kd ([3]; read-out: Kd (affinity)): 0.047 µM

COc1cnc(-n2cnc(C)n2)c2[nH]cc(C(=O)C(=O)N3CCN(C(=O)c4ccccc4)CC3)c12 [BMS-626529]
IC50 ([1]; Geomean, 30-strain panel, read-out: Geometric mean IC50): ~0.04 µM
IC50 [1, 5]: 0.024 µM
IC50 [1, 6]: 0.009 µM
IC50 [1, 7]: 0.185 µM
IC50 [1, 8]: 0.005 µM
IC50 [1, 9]: 0.02 µM
IC50 [1, 10]: 0.0007 µM
IC50 [1, 11]: > 20 µM
IC50 [1, 12]: 12.4 µM
IC50 [1, 13]: 6.21 µM
IC50 [1, 14]: 0.066 µM
IC50 [1, 15]: 0.005 µM
IC50 [1, 16]: 0.002 µM
IC50 [1, 17]: 0.878 µM
IC50 [1, 18]: > 20 µM
IC50 [1, 19]: 0.012 µM
IC50 [1, 20]: 0.002 µM
IC50 [1, 21]: > 0.04 µM
IC50 [1, 22]: 0.758 µM
IC50 [1, 23]: 0.474 µM
IC50 [1, 24]: 0.002 µM
IC50 [1, 25]: 0.017 µM
IC50 [1, 26]: 0.0009 µM
IC50 [1, 27]: 5.84 µM
IC50 [1, 28]: 0.205 µM
IC50 [1, 29]: 0.0005 µM
IC50 [1, 30]: 0.003 µM
IC50 [1, 31]: 0.016 µM
IC50 ([1]; Human immunodeficiency virus 1, TZM-bl, read-out: IC50): 0.005 µM
-TΔS [3]: +7.7 kcal/mol
ΔG [3]: -38.1 kJ/mol
ΔH [3]: -70.3 kJ/mol
EC50 (HIV-1 strain NL4-3): 0.0022 ± 0.0006 µM
IC50 (SIVmac251.30.SG3): > 20 µM
IC50 (SVA.MLV [4]): > 20 µM
